Consider 31 compounds from US11541120B2, “Phosphonium-based ionic drug conjugates” (Anthos Partners, LP, priority 2017, dated 2023).

In general, solubility refers to the concentration that dissolves in the medium under given conditions. As a reminder, the Papp A→B is how fast a substance crosses the layer from the apical side. What is called Papp B→A is how fast a substance crosses the layer from the basolateral side. Broadly, the efflux ratio is a quotient of directional permeabilities that is used to spot active efflux.

Converted amounts (≈) assume the structure as drawn.

Tested on in one series: not listed separately
Kind of series: Partition coefficient octanol/PBS (LogD7.4). It is filed as physicochemical. As to conditions: 100 μM in PBS shaken with octanol. On the procedure: (§1) The water solubilties and partition coefficients of the PBICs were measured and compared to the values of the therapeutic agent by itself. To determine the partition coefficient Log D7.4 data provided in Table 2, a solution of the compound or conjugate was prepared in aqueous phosphate buffered saline (PBS) at a concentration of 100 micromolar (μM). The PBS solution was shaken with octanol. Thus, in Table 2, Log D7.4=Log (concentration in octanol/concentration in aqueous phosphate buffered saline (PBS))=Log[(initial concentration in PBS−final concentration in PBS)/final concentration in PBS], as the concentration in octanol is derived from the loss of compound from the aqueous PBS layer.
With `CCC1C(O)C2C3CCC(C(C)CCC(=O)[O-])C3(C)CCC2C2(C)CCC(O)CC12.COC1=C(OC)C(=O)C(CCCCCCCCCC[P+](c2ccccc2)(c2ccccc2)c2ccccc2)=C(C)C1=O` [Obeticholic acid-MitoQ], the “(Conc. in octanol)/(Conc. in PBS)” value was found to be 624.00 and the LogD7.4 stood at 2.80.
For Obeticholic acid-TPMP the same measures were 1,182.39 and 3.07.
Turning to `CC(C)Cc1ccc(C(C)C(=O)[O-])cc1.COC1=C(OC)C(=O)C(CCCCCCCCCC[P+](c2ccccc2)(c2ccccc2)c2ccccc2)=C(C)C1=O` [Ibuprofen-MitoQ, Ibuprofen MitoQ conjugate], the “(Conc. in octanol)/(Conc. in PBS)” value is listed as 9.94 and the LogD7.4 was 1.00.

Tested on in a further series: not given
Test: not given
Particulars: parent drug; cited from earlier work.
On to `CC[C@H]1[C@@H](O)[C@@H]2[C@H](CC[C@]3(C)[C@@H]([C@H](C)CCC(=O)O)CC[C@@H]23)[C@@]2(C)CC[C@@H](O)C[C@@H]12` [Obeticholic acid, reference compound], for which the “LogP (Reported)” value was 3.5.

Tested on in a further series: not listed separately
Kind of series: Water solubility of PBICs. It is filed as physicochemical.
Conditions: not given
Here is the method:
as §1
Regarding `CC(C)Cc1ccc(C(C)C(=O)O)cc1` (centres unmarked) [Ibuprofen, reference compound], the “Water solubility, Drug” value was 21.0 mg/L.

Staying with this series, now noted: MitoQ conjugate of the drug.
In the case of `CC(C)Cc1ccc(C(C)C(=O)[O-])cc1.COC1=C(OC)C(=O)C(CCCCCCCCCC[P+](c2ccccc2)(c2ccccc2)c2ccccc2)=C(C)C1=O` [Ibuprofen-MitoQ, Ibuprofen MitoQ conjugate], the “Water solubility, MitoQ Conjugate” value was “Insoluble”.

Still in this series, the particulars now being: TPMP conjugate of the drug.
As to “L-Thyroxine TPMP conjugate [Levothyroxine TPMP Conjugate]”, the “Water solubility, TPMP Conjugate” value was less than 400 mg/L.
Same read-out and setting: the value for “Travoprost Acid-TPMP conjugate [Travoprost TPMP Conjugate]” was 1,921,666.7 mg/L.
Still for that read-out and setting: to Treprostinil TPMP conjugate belongs 2,558,000.0 mg/L; to “Latanoprost Acid-TPMP conjugate [Latanoprost TPMP Conjugate]”, 2,187,777.8 mg/L.
As to “Baclofen-TPMP conjugate [Baclofen TPMP Conjugate]”, the “Water solubility, TPMP Conjugate” value was 13,500.0 mg/L.
Turning to Deoxycholic acid TPMP conjugate, the “Water solubility, TPMP Conjugate” value is 2,518,000.0 mg/L.
Still for that read-out and setting: the value for “racemic 3-Hydroxybutyric Acid-TPMP conjugate [3-hydroxybutyric acid TPMP Conjugate]” was 4,332,500.0 mg/L; that for “Indomethacin-TPMP conjugate [Indomethacin TPMP Conjugate]” was 1,700,000.0 mg/L.
Consider Captopril TPMP conjugate, for which the “Water solubility, TPMP Conjugate” value was 3,036,666.7 mg/L.
The same measure, in the same setting: the value for “(R)-3-Hydroxybutyric Acid-TPMP conjugate [R-3-Hydroxybutyric acid TPMP Conjugate]” was 2,867,500.0 mg/L; that for “Diflunisal-TPMP conjugate [Diflunisal TPMP Conjugate]” was 1,518,333.3 mg/L.
Regarding “Retinoic Acid-TPMP conjugate [Retinoic acid TPMP Conjugate]”, the “Water solubility, TPMP Conjugate” value is reported as 2,624,000.0 mg/L.

Still in this series, the particulars now being: parent drug by itself.
In the case of `CC1=C(/C=C/C(C)=C/C=C/C(C)=C/C(=O)O)C(C)(C)CCC1` [Retinoic acid], the “Water solubility, Drug” value is given as 1,000.0 mg/L.
On the same count and under the same terms, to `C[C@H](CCC(=O)O)[C@H]1CC[C@H]2[C@@H]3CC[C@@H]4C[C@H](O)CC[C@]4(C)[C@H]3C[C@H](O)[C@]12C` [Deoxycholic acid] belongs 43.6 mg/L.

The series is the same for the next values; noted with them: water; parent drug by itself.
With `COc1ccc2c(c1)c(CC(=O)O)c(C)n2C(=O)c1ccc(Cl)cc1` [Indomethacin], the solubility is 0.9 µg/mL (≈ 0.00252 mM).
As for `N[C@@H](Cc1cc(I)c(Oc2cc(I)c(O)c(I)c2)c(I)c1)C(=O)O` [Levothyroxine], the solubility is 0.2 µg/mL (≈ 0.000257 mM).
For `O=C(O)c1cc(-c2ccc(F)cc2F)ccc1O` [Diflunisal], the solubility was found to be 14.5 µg/mL (≈ 0.058 mM).
`C[C@@H](O)CC(=O)O` [R-3-Hydroxybutyric acid, (R)-3-hydroxybutyric acid]: the solubility came out at 444000 µg/mL (≈ 4260 mM).
The same measure, in the same setting: the value for `CC(C)OC(=O)CCC/C=C\C[C@@H]1[C@@H](CC[C@@H](O)CCc2ccccc2)[C@H](O)C[C@@H]1O` [Latanoprost] was 8 µg/mL (≈ 0.0185 mM); that for `O=C(O)c1cc(/N=N/c2ccc(S(=O)(=O)Nc3ccccn3)cc2)ccc1O` [Sulfasalazine] was 1 µg/mL (≈ 0.00251 mM).
Consider `CC(O)CC(=O)O` (racemic) [3-hydroxybutyric acid], for which the solubility is 444000 µg/mL (≈ 4260 mM).
The same measure, in the same setting: to `C[C@H](CS)C(=O)N1CCC[C@H]1C(=O)O` [Captopril] belongs 160000 µg/mL (≈ 736 mM).
Still for that read-out and setting: the value for `CC(C)OC(=O)CCC/C=C\C[C@@H]1[C@@H](/C=C/[C@@H](O)COc2cccc(C(F)(F)F)c2)[C@H](O)C[C@@H]1O` [Travoprost] was 7 µg/mL (≈ 0.014 mM).
On the same count and under the same terms, to `NCC(CC(=O)O)c1ccc(Cl)cc1` (centres unmarked) [Baclofen] belongs 700 µg/mL (≈ 3.28 mM); to `CCCCC[C@H](O)CC[C@@H]1[C@H]2Cc3cccc(OCC(=O)O)c3C[C@H]2C[C@H]1O` [Treprostinil], 7 µg/mL (≈ 0.0179 mM).

Tested on in another series: not listed separately
Kind of series: Caco-2 cell permeability. Particulars: human, Caco-2. (In general: Caco-2 monolayers are a common model of the intestinal barrier.)
In turn, `CC(C)Cc1ccc(C(C)C(=O)O)cc1` (centres unmarked) [Ibuprofen, reference compound] registered a Papp A→B of 40.5 ×10⁻⁶ cm/s and a Papp B→A of 19 ×10⁻⁶ cm/s.
In turn, `O=C(O)Cc1ccccc1Nc1c(Cl)cccc1Cl` [Diclofenac, reference compound] had a Papp A→B of 34.5 ×10⁻⁶ cm/s and a Papp B→A of 13.5 ×10⁻⁶ cm/s.
For `CC[C@H]1[C@@H](O)[C@@H]2[C@H](CC[C@]3(C)[C@@H]([C@H](C)CCC(=O)O)CC[C@@H]23)[C@@]2(C)CC[C@@H](O)C[C@@H]12` [Obeticholic acid, reference compound], the Papp A→B turned out to be 32.6 ×10⁻⁶ cm/s, the Papp B→A came to 3.23 ×10⁻⁶ cm/s and the efflux ratio was found to be 0.0989.

For the next series, the system named is Caco-2. Kind of series: Caco-2 cell permeability. Particulars: No Inhibitor.
As to `CCC1C(O)C2C3CCC(C(C)CCC(=O)[O-])C3(C)CCC2C2(C)CCC(O)CC12.COC1=C(OC)C(=O)C(CCCCCCCCCC[P+](c2ccccc2)(c2ccccc2)c2ccccc2)=C(C)C1=O` [Obeticholic acid-MitoQ], the “Mean (B-A/A-B) Efflux Ratio” value is 0.0872, the “Mean Papp A-B” value is listed as 18.9 10^−6 cm/s and the “Mean Papp B-A” value is 1.65 10^−6 cm/s.
In the case of Obeticholic acid-TPMP, the “Mean (B-A/A-B) Efflux Ratio” value was 0.103, the “Mean Papp A-B” value was 20.5 10^−6 cm/s and the “Mean Papp B-A” value is reported as 2.11 10^−6 cm/s.
In the case of `CC(C)Cc1ccc(C(C)C(=O)[O-])cc1.COC1=C(OC)C(=O)C(CCCCCCCCCC[P+](c2ccccc2)(c2ccccc2)c2ccccc2)=C(C)C1=O` [Ibuprofen-MitoQ, Ibuprofen MitoQ conjugate], the “Mean (B-A/A-B) Efflux Ratio” value is 0.467, the “Mean Papp A-B” value was 52.1 10^−6 cm/s and the “Mean Papp B-A” value is given as 24.3 10^−6 cm/s.
